Two compounds from patent publication US12414953B2, “Selective inhibitors of protein arginine methyltransferase 5 (PRMT5)” (Prelude Therapeutics, Incorporated, priority 2019, dated 2025) can be followed below.

In one data set the test system is U-87 MG cells. The data set can be described thus: Cell proliferation assay (CCK-8, day 10). It counts as cell-based. Particulars: Homo sapiens, 240 h, U-87 MG cell line, read-out: Prolif. IC50. On the procedure: One day before experiment, Granta-519 cells were passaged to a density of 0.5×10^6 cells/ml. U-87 MG cells were trypsinized and 2,000 cells were seeded into 96-well plates and allowed to grow overnight. On the day of experiment (day 0), Granta-519 Cells were spun down at 1,500 rpm for 4 min, resuspended in fresh medium to 0.5×10^6 cells/ml and 190 μL of cells were added to 96 well plates. For U-87 MG cells, old medium was removed and replaced with 190 uL fresh medium. Compound working stocks were first diluted at 1:50 with fresh medium in 96 well plate and 10 μL of diluted drugs were added to 96 well plates containing cells and incubated for 3 days. DMSO was used a vehicle control.
One day 3, 50 μL of Granta-519 cells were transferred to a new 96-well plate and 140 uL fresh medium was added. […]
On day 10, 100 μL Granta-519 cells were transferred to a new 96 well plate and 10 μL of Cell Counting Kit-8 (CCK-8, Jojindo, CK04-13) solution was added. […] Plates were incubated in CO2 incubator for 2 hours (Granta-519 cells) or 30 min (U-87 MG cells) and OD450 values were measured with a microplate reader (iMark microplate reader, Bio-Rad). Percentage of viable cells, relative to DMSO vehicle control, were calculated and plotted in Graphpad Prism ([Inhibitor] vs. normalized response−Variable slope) to determine proliferation IC50 values on day 10. […]

A short description of data set [1]: Solubility of HCl salt in solvents, saturated solution analyzed by HPLC. The class given is physicochemical. The conditions noted are these: thermodynamic from solid; for solubility: 21 °C, 21 ± 1° C.; for solubility at 24 hr: 50 °C, 50 ± 1° C. How it is done:
3 mL of the tested solvent was added to a 4 mL of vial. Formula IA was added until a cloudy solution was obtained at 21±1° C. About 30 mg additional Formula IA was added to the cloudy solution. The mixture was agitated at 21±1° C. for a weekend, during which the temperature was controlled by IKA® ETS-D5 temperature controller and IKA® RCT basic safety control. The mixture was filtered using a syringe filter (PTFE, […], 13 mm, Agela Technologies Inc.). The satuatred solution was transferred into an HPLC vial, diluted with methanol, and analyzed by HPLC.
2 mL of the tested solvent was added to a 4 mL of vial. Formula IA was added until a cloudy solution was obtained at 50±1° C. About 30 mg additional Formula IA was added to the cloudy solution. The mixture was agitated at 50±1° C. for 24 hr, during which the temperature was controlled by IKA® ETS-D5 temperature controller and IKA® RCT basic safety control. The mixture was filtered using a syringe filter (PTFE, […], 13 mm, Agela Technologies Inc.). The saturated solution was transferred into an HPLC vial, diluted with methanol, and analyzed by HPLC.

Where [2] appears, read: organic solvent or mixture, EtOAc.
Where [3] appears, read: organic solvent or mixture, EtOH.
The mark [4] stands for this setting: organic solvent or mixture, IPA.
Where [5] appears, read: organic solvent or mixture, IPAc.
Where [6] appears, read: organic solvent or mixture, MeCN.
Where [7] appears, read: organic solvent or mixture, Methanol.

Turning to `Cc1ncnc2c1ccn2[C@@H]1O[C@H]([C@@H]2OCCc3cc(Cl)ccc32)[C@@H](O)[C@H]1O` [Formula I, (2S,3S,4R,5R)-2-((R)-6-chloroisochroman-1-yl)-5-(4-methyl-7H-pyrrolo[2,3-d]pyrimidin-7-yl)tetrahydrofuran-3,4-diol], the IC50 with U-87 MG cells came out at 54 nM.

`Cc1ncnc2c1ccn2[C@@H]1O[C@H]([C@@H]2OCCc3cc(Cl)ccc32)[C@@H](O)[C@H]1O` [Formula IA, (2S,3S,4R,5R)-2-((R)-6-chloroisochroman-1-yl)-5-(4-methyl-7H-pyrrolo[2,3-d]pyrimidin-7-yl)tetrahydrofuran-3,4-diol]: the solubility is 120 µg/mL in data set [1] (setting [2]); 7640 µg/mL in data set [1] (setting [3]); 960 µg/mL in data set [1] (setting [4]); 160 µg/mL in data set [1] (setting [5]); 690 µg/mL in data set [1] (setting [6]); above 50000 µg/mL in data set [1] (setting [7]). Besides, the solubility in data set [1] (Water) was determined as 14700 µg/mL. Also, the solubility at 24 hr in data set [1] (setting [2]) is 160 µg/mL; in data set [1] (setting [3]), 10800 µg/mL; in data set [1] (setting [4]), 1990 µg/mL; in data set [1] (setting [5]) it was 240 µg/mL; in data set [1] (setting [6]), 1050 µg/mL; in data set [1] (setting [7]) it was above 50000 µg/mL. In data set [1] (Water), the solubility at 24 hr stood at 43800 µg/mL.
